Source: US9783488B2 (CHDI Foundation, Inc., priority 2013, dated 2017)

Assays:
[1] = target: human catalytic domain HDAC4 protein (amino acids 648-1032) (Homo sapiens (Human), UniProt P56524); experiment: Inhibition of HDAC4 catalytic domain enzymatic activity, fluorogenic substrate Boc-Lys(Tfa)-AMC; conditions: HDAC4 catalytic domain enzyme, read-out: Biochemical HDAC4 IC50
[2] = tested on: cellular histone deacetylase enzymatic activity in Jurkat E6-1 cells; experiment: Inhibition of cellular HDAC activity in Jurkat E6-1 cells, fluorogenic substrate Boc-Lys(Tfa)-AMC; assay type: cell-based; conditions: Homo sapiens, read-out: Cell IC50
Summary of the method: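 Jurkat E6.1 cells (75,000/well) were pre-treated with compound for 2 h at 37 °C, then given Boc-Lys(Tfa)-AMC (5× stock 500 μM) for 3 h. Cells were lysed with trypsin-containing buffer overnight, and released AMC fluorescence was read at Ex 355/Em 460 nm over a 16-point dilution series.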

Sequence of human catalytic domain HDAC4 protein (amino acids 648-1032) (P56524 648-1032): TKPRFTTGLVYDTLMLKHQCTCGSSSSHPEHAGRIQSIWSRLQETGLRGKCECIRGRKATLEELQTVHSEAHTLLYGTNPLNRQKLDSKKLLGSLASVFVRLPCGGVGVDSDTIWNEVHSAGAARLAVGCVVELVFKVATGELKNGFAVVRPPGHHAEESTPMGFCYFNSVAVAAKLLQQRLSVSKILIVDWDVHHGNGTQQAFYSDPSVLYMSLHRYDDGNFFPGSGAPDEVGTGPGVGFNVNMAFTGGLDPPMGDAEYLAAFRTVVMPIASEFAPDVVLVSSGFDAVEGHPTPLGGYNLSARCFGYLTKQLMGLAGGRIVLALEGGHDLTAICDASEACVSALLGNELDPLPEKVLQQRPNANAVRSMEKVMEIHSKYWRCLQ

Row | IC50 [1] [nM] | IC50 [2] [nM] | Structure (SMILES)
1 | 910 | 8100 | Cc1cccc(Cl)c1C1(C(=O)NO)CCCC1 [Example 31, 1-(2-Chloro-6-methylphenyl)-N-hydroxycyclopentanecarboxamide]
2 | 110 | 250 | Cc1c(F)cccc1[C@]1(C(=O)NO)CC[C@H](c2ccc3cnn(C)c3c2F)C1 (relative stereo) [Example 82, (1S,3S*)-3-(7-Fluoro-1-methyl-1H-indazol-6-yl)-1-(3-fluoro-2-methylphenyl)-N-hydroxycyclopentanecarboxamide]
3 | > 50000 | > 50000 | COc1cccc(C2(C(=O)NO)CCCC2)c1C(F)(F)F [Example 33, N-Hydroxy-1-(3-methoxy-2-(trifluoromethyl)phenyl)cyclopentanecarboxamide]
4 | 72 | 110 | Cc1c(F)cccc1[C@]1(C(=O)NO)CC[C@@H](c2ccc3cnn(C(F)F)c3c2)C1 (relative stereo) [Example 54, (1S,3R*)-3-(1-(difluoromethyl)-1H-indazol-6-yl)-1-(3-fluoro-2-methylphenyl)-N-hydroxycyclopentanecarboxamide]
5 | 190 | 420 | COc1ncc([C@@H]2CC[C@@](C(=O)NO)(c3cccc(F)c3C)C2)cc1F (relative stereo) [Example 45, (1S,3R*)-1-(3-fluoro-2-methylphenyl)-3-(5-fluoro-6-methoxypyridin-3-yl)-N-hydroxycyclopentanecarboxamide]
6 | 390 | 1600 | Cc1c(F)cccc1[C@]1(C(=O)NO)CC[C@H](c2cncnc2)C1 (relative stereo) [Example 3, (±)-(1S*,3S*)-1-(3-fluoro-2-methylphenyl)-N-hydroxy-3-(pyrimidin-5-yl)cyclopentanecarboxamide]
7 | 2500 | 24000 | Cc1c(F)cccc1[C@]1(C(=O)NO)CC[C@H](N2CCOCC2)C1 (relative stereo) [Example 90, (1S,3S*)-1-(3-Fluoro-2-methylphenyl)-N-hydroxy-3-morpholinocyclopentanecarboxamide]
8 | 170 | 400 | Cc1c(F)cccc1[C@]1(C(=O)NO)CC[C@@H](c2ccnn2C)C1 (relative stereo) [Example 49, (1S,3R*)-1-(3-Fluoro-2-methylphenyl)-N-hydroxy-3-(1-methyl-1H-pyrazol-5-yl)cyclopentane carboxamide]
9 | 280 | 410 | Cc1c(F)cccc1[C@]1(C(=O)NO)CC[C@@H](c2ccc3oc(C4CC4)nc3c2)C1 (relative stereo) [Example 62, (1S,3R*)-3-(2-cyclopropylbenzo[d]oxazol-5-yl)-1-(3-fluoro-2-methylphenyl)-N-hydroxycyclopentanecarboxamide]
10 | 290 | 1600 | Cc1c(F)cccc1[C@]1(C(=O)NO)CC[C@@H](Oc2ccc3cnn(C)c3c2)C1 [Example 91, (1S,3R)-1-(3-Fluoro-2-methylphenyl)-N-hydroxy-3-((1-methyl-1H-indazol-6-yl)oxy)cyclopentanecarboxamide]
11 | 140 | 470 | Cc1c(F)cccc1[C@]1(C(=O)NO)CC[C@H](Oc2ccc3cnn(C)c3c2)C1 [Example 92, (1S,3S)-1-(3-Fluoro-2-methylphenyl)-N-hydroxy-3-((1-methyl-1H-indazol-6-yl)oxy)cyclopentanecarboxamide]
12 | 320 | 210 | Cc1c(F)cccc1[C@]1(C(=O)NO)CC[C@H](c2ccc3c(F)nn(C)c3c2)C1 (relative stereo) [Example 68, (1S,3S*)-3-(3-fluoro-1-methyl-1H-indazol-6-yl)-1-(3-fluoro-2-methylphenyl)-N-hydroxycyclopentanecarboxamide]
13 | 150 | 1280 | Cc1c(F)cccc1[C@]1(C(=O)NO)CC[C@H](c2cncc(F)c2)C1 (stereo in doubt) [Example 9, (1S,3S*)-1-(3-fluoro-2-methyl-phenyl)-3-(5-fluoropyridin-3-yl)-N-hydroxycyclopentanecarboxamide]
14 | 290 | 1910 | Cc1c(F)cccc1[C@]1(C(=O)NO)CC[C@@H](c2cncnc2)C1 (relative stereo) [Example 2, (±)-(1S*,3R*)-1-(3-fluoro-2-methylphenyl)-N-hydroxy-3-(pyrimidin-5-yl)cyclopentanecarboxamide]
15 | 55 | 59 | Cc1c(F)cccc1[C@]1(C(=O)NO)CC[C@@H](c2ccc3cnn(C)c3c2F)C1 (relative stereo) [Example 83, (1S,3R*)-3-(7-Fluoro-1-methyl-1H-indazol-6-yl)-1-(3-fluoro-2-methylphenyl)-N-hydroxycyclopentanecarboxamide]
16 | 1100 | 7300 | Cc1c(F)cccc1[C@]1(C(=O)NO)CC[C@@H](N2CCOCC2)C1 (relative stereo) [Example 89, (1S,3R*)-1-(3-fluoro-2-methylphenyl)-N-hydroxy-3-morpholinocyclopentanecarboxamide]
17 | 6400 | 48800 | O=C(NO)[C@]1(c2ccccc2)CC[C@@H](c2cncc(F)c2)CC1 [Example 13, (1 r,4r)-4-(5-fluoropyridin-3-yl)-N-hydroxy-1-phenylcyclohexanecarboxamide]
